Source: US5721103A, “Trienoic retinoid compounds and methods” (Ligand Pharmaceuticals Incorporated, priority 1995, dated 1998)

Tests used:
[1] = tested on: ornithine decarboxylase (ODC); assay: Ornithine decarboxylase assay, inhibition of TPA induction of ODC; assay type: cell-based; conditions: esters of Compounds 9 and 10
RARγ = target: T1, RARγ (Homo sapiens, UniProt P13631); assay: Co-transfection assay, RARγ agonist activity; assay type: cell-based
T1 construct: expressed in transfected cells; host or cells: CV-1 (African green monkey kidney)
T1 sequence (P13631 1-454): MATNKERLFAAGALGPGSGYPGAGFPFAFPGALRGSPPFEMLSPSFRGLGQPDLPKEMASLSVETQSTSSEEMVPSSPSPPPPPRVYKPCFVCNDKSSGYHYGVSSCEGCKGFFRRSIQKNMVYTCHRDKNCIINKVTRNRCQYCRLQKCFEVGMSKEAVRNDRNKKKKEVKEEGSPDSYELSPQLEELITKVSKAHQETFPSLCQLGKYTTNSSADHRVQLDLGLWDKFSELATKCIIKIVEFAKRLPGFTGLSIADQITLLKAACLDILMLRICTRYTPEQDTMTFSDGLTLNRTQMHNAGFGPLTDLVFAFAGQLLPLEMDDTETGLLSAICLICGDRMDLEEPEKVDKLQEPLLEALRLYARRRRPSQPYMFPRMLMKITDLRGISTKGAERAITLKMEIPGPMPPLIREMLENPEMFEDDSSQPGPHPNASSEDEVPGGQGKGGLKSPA

RARs and RXRs = assay: Co-transfection assay, RAR and RXR receptors taken together; assay type: cell-based
Protocol: Utilizing the "cis-trans" or "co-transfection" assay described by Evans et al., Science, 240:889-95 (May 13, 1988), the disclosure of which is herein incorporated by reference, the retinoid compounds of the present invention were tested and found to have strong, specific activity as either selective RAR agonists, selective RXR agonists, or as pan-agonist activators of both RAR and RXR receptors. This assay is described in further detail in U.S. Pat. Nos. 4,981,784 and 5,071,773, the disclosures of which are incorporated herein by reference.
In the co-transfection assay, a cloned cDNA for an IR (e.g., human RARα, RARβ, RXRγ) under the control of a constitutive promoter (e.g., the SV 40 promoter) is introduced by transfection (a procedure to induce cells to take up foreign genes) into a background cell substantially devoid of endogenous IRs. This introduced gene directs the recipient cells to make the IR protein of interest. A second gene is also introduced (co-transfected) into the same cells in conjunction with the IR gene. This second gene, comprising the cDNA for a reporter protein, such as firefly luciferase (LUC), is controlled by an appropriate hormone responsive promoter containing a hormone response element (HRE). This reporter plasmid functions as a reporter for the transcription-modulating activity of the target IR. Thus, the reporter acts as a surrogate for the products (mRNA then protein) normally expressed by a gene under control of the target receptor and its native hormone.
The co-transfection assay can detect small molecule agonists or antagonists of target IRs. Exposing the transfected cells to an agonist ligand compound increases reporter activity in the transfected cells. This activity can be conveniently measured, e.g., by increasing luciferase production, which reflects compound-dependent, IR-mediated increases in reporter transcription. […] . Increasing concentrations of a suspected antagonist will decrease the reporter signal (e.g., luciferase production). The co-transfection assay is therefore useful to detect both agonists and antagonists of specific IRs. Furthermore, it determines not only whether a compound interacts with a particular IR, but whether this interaction mimics (agonizes) or blocks (antagonizes) the effects of the native regulatory molecules on target gene expression, as well as the specificity and strength of this interaction.
To determine RAR and/or RXR agonist activity of the compounds of the present invention, the CV-1 cells were transiently transfected by calcium phosphate coprecipitation according to the procedure of Berger et al., 41 J. Steroid Biochem. Mol. Biol., 733 (1992) with the following receptor expressing plasmids: pRShRARα: Giguere et at., 330 Nature, 624 (1987); pRShRARβ and pRShRARγ, Ishikawa et al., 4 Mol. Endocrin., 837 (1990); pRShRXRα, Mangelsdorf et at., 345 Nature, 224 (1990); and pRSmRXRβ and pRSmRXRγ, Mangelsdorf et al., 6 Genes & Devel., 329 (1992), the disclosures of which are herein incorporated by reference. Each of these receptor expressing plasmids was co-transfected at a concentration of 5 ng/well, along with a basal reporter plasmid at 100 ng/well, the internal control plasmid pRS-β-Gal at 50 ng/well and filler DNA, pGEM at 45 ng/well.

RAR and RXR receptors = assay: Binding to the retinoid receptors taken together; conditions: RARs and RXRs; compounds 9 and 10 versus ATRA and 9-cis
RXRα = target: T2, RXRα (Homo sapiens, UniProt P19793); assay: Co-transfection assay, RXRα agonist activity; assay type: cell-based; conditions: CV-1 cells, 40 hours, read-out: Potency (EC50) RXRα
T2 construct: expressed in transfected cells; host or cells: CV-1 (African green monkey kidney)
T2 sequence (P19793 1-462): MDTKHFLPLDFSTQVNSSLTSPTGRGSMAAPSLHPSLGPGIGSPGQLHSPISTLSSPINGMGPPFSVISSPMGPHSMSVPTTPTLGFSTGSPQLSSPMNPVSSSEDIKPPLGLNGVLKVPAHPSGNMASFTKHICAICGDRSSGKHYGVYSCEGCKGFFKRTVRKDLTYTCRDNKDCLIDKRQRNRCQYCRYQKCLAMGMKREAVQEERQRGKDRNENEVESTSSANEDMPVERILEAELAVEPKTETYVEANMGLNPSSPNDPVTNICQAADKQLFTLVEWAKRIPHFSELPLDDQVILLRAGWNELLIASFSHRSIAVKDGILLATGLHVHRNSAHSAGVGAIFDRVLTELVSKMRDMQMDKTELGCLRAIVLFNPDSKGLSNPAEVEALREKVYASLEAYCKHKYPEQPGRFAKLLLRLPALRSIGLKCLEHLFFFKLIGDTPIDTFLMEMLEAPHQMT

RXRγ = target: T3, RXRγ (Mus musculus, UniProt P28705); assay: Co-transfection assay, RXRγ agonist activity; assay type: cell-based; conditions: CV-1 cells, 40 hours, read-out: Potency (EC50) RXRγ
T3 construct: expressed in transfected cells; host or cells: CV-1 (African green monkey kidney)
T3 sequence (P28705 1-463): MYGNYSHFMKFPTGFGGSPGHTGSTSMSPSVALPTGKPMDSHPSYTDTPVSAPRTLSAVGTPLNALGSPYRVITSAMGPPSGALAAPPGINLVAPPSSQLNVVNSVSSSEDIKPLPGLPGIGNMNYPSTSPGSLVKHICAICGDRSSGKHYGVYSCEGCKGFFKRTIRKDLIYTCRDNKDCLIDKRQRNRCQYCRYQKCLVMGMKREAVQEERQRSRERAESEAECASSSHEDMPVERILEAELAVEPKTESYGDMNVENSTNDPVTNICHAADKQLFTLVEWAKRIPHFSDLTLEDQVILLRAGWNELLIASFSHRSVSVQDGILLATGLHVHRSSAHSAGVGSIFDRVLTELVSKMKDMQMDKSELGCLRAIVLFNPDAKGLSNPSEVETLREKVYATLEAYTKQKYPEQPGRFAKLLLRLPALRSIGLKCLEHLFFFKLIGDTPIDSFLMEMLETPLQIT

RARα = target: T4, RARα (Homo sapiens, UniProt P10276); assay: Co-transfection assay, RARα agonist activity; assay type: cell-based; conditions: CV-1 cells, 40 hours, read-out: Potency (EC50) RARα
T4 construct: expressed in transfected cells; host or cells: CV-1 (African green monkey kidney)
T4 sequence (P10276 1-462): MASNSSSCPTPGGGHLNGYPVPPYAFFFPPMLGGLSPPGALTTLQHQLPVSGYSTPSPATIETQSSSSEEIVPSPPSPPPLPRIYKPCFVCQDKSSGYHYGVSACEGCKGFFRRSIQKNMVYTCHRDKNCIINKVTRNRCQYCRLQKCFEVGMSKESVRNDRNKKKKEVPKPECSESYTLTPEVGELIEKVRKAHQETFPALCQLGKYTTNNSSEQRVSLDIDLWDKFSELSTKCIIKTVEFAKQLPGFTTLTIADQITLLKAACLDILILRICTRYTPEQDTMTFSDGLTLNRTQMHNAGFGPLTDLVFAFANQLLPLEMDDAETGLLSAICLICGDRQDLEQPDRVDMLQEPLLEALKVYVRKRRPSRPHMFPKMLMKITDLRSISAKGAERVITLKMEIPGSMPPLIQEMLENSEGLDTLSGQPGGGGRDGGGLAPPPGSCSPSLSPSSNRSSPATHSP

RXRβ = target: T5, RXRβ (Mus musculus, UniProt P28704); assay: Co-transfection assay, RXRβ agonist activity; assay type: cell-based; conditions: CV-1 cells, 40 hours, read-out: Potency (EC50) RXRβ
T5 construct: expressed in transfected cells; host or cells: CV-1 (African green monkey kidney)
T5 sequence (P28704 1-520): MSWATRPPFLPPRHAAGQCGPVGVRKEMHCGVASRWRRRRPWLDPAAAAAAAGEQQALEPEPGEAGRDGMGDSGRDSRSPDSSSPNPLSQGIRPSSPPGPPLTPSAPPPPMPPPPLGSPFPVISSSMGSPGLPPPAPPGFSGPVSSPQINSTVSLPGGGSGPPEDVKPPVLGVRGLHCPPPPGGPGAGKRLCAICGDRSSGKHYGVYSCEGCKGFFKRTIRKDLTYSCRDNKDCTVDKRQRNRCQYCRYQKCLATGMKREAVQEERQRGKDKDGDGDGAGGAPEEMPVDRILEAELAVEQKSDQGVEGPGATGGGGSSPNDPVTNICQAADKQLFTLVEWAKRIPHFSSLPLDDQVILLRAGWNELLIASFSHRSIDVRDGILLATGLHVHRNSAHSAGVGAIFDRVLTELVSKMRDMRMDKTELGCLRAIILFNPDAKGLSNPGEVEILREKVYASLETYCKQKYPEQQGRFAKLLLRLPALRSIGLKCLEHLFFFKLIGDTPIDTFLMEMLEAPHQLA

RARβ = target: T6, RARβ (Homo sapiens, UniProt P10826); assay: Co-transfection assay, RARβ agonist activity; assay type: cell-based; conditions: CV-1 cells, 40 hours, read-out: Potency (EC50) RARβ
T6 construct: expressed in transfected cells; host or cells: CV-1 (African green monkey kidney)
T6 sequence (P10826 1-448 isoform P10826-2): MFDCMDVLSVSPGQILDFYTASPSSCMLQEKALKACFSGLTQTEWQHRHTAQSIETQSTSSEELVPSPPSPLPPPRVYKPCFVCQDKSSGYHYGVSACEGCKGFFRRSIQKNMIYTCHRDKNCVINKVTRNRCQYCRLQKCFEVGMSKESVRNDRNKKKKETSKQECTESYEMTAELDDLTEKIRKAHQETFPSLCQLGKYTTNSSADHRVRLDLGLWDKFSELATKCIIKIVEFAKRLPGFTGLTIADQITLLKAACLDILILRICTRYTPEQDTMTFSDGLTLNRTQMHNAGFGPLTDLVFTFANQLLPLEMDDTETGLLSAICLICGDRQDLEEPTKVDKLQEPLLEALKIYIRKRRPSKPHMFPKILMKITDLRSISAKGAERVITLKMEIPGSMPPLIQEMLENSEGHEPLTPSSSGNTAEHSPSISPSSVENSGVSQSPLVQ

CCOC(=O)/C=C(C)/C=C/C=C(\C)c1cc(C(C)(C)C)cc(C(C)(C)C)c1 [Compound 7, Ethyl (2E, 4E, 6E)-7-(3,5-di-t-butylphenyl)-3-methylocta-2,4,6-trienoate]
retinoid activity of ester analogs (in words) [1]: exhibit retinoid activity

CC(/C=C/C=C(\C)c1cc(C(C)(C)C)cc(C(C)(C)C)c1)=C\C(=O)O [Compound 9, (2E, 4E, 6E)-7-(3,5-Di-t-butylphenyl)-3-methylocta-2,4,6-trienoic acid]
activity on RARγ (in words) (RARγ): sub-nanomolar activity on RARγ
RAR activity (in words) (RARs and RXRs; RARs): extremely potent RAR active compounds
binding on the retinoid receptors (in words) (RAR and RXR receptors): equal or superior binding

C/C(=C/C=C/C(C)=C/C(=O)O)c1cc(C(C)(C)C)cc(C(C)(C)C)c1 [Compound 10, (2E, 4E, 6Z)-7-(3,5-Di-t-butylphenyl)-3-methylocta-2,4,6-trienoic acid]
potency profile in comparison to 9-cis retinoic acid (in words) (RARs and RXRs; versus 9-cis, pan-agonist): superior potency profile
binding on the retinoid receptors (in words) (RAR and RXR receptors): equal or superior binding

CCOC(=O)/C=C(C)/C=C/C=C(/C)c1cc(C(C)(C)C)cc(C(C)(C)C)c1 [Compound 8, Ethyl (2E, 4E, 6Z)-7-(3,5-di-t-butylphenyl)-3-methylocta-2,4,6-trienoate]
retinoid activity of ester analogs (in words) [1]: exhibit retinoid activity

CC(/C=C/C=C(\C)c1ccc(C(C)(C)C)cc1)=C\C(=O)O [Compound 44, (2E, 4E, 6E)-7-(4-T-butyl-phenyl)-3-methylocta-2,4,6-trienoic acid]
EC50 (RARγ; CV-1 cells, 40 hours, read-out: Potency (EC50) RARγ): 33 nM
EC50 (RXRα): 1440 nM
EC50 (RXRγ): 224 nM
EC50 (RARα): 223 nM
EC50 (RXRβ): 21 nM
EC50 (RARβ): 37 nM
